Laboratory results: patent publication US11180504B2 (ORCHID PHARMA LTD., priority 2016, dated 2021)
≈ marks a conversion by molar mass, not a printed value.

Experiments:
[1] = test system: methicillin-sensitive Staphylococcus aureus; assay: MIC by broth micro-dilution (CLSI), methicillin-sensitive S. aureus; type: cell-based; conditions: Staphylococcus aureus, ATCC 29213 / MSSA, MSSA S. aureus ATCC29213; read-out: MIC
[2] = test system: carbapenem sensitive Escherichia coli; assay: MIC by broth micro-dilution (CLSI), carbapenem sensitive E. coli; type: cell-based; conditions: Escherichia coli, ATCC25922, ESBL −ve E. coli ATCC25922; read-out: MIC
[3] = test system: carbapenemase producing K. pneumoniae; assay: MIC by broth micro-dilution (CLSI), carbapenemase producing K. pneumoniae; type: cell-based, Klebsiella pneumoniae; conditions: Klebsiella pneumoniae, ATCCBAA1705, KPC-2 K. pneumoniae ATCC BAA-1705; read-out: MIC
[4] = test system: carbapenem sensitive Pseudomonas aeruginosa; assay: MIC by broth micro-dilution (CLSI), carbapenem sensitive P. aeruginosa; type: cell-based; conditions: Pseudomonas aeruginosa, ATCC27853, Meropenem susceptible P. aeruginosa ATCC27853; read-out: MIC

| SMILES | MIC [1] | MIC [2] | MIC [3] | MIC [4] |
| --- | --- | --- | --- | --- |
| C[C@@H](NC(=O)Cn1ccnn1)[C@H]1C(=O)N2C(C(=O)O)=C(S[C@@H]3CN[C@H](C(=O)N(C)C)C3)[C@H](C)[C@H]12 [Example 296] | 4 µg/mL (≈ 8.14 µM) | 0.5 µg/mL (≈ 1.02 µM) | 2 µg/mL (≈ 4.07 µM) | 64 µg/mL (≈ 130 µM) |
| C[C@@H](NC(=O)Cn1cnnn1)[C@H]1C(=O)N2C(C(=O)O)=C(S[C@@H]3CN[C@H](C(=O)N4CC[C@@H](N)C4)C3)[C@H](C)[C@H]12 [Example 298, (4R,5S,6R)-6-((R)-1-(2-(1H-tetrazol-1-yl)acetamido)ethyl)-3-((3S,5S)-5-((R)-3-aminopyrrolidine-1-carbonyl)pyrrolidin-3-ylthio)-4-methyl-7-oxo-1-azabicyclo[3.2.0]hept-2-ene-2-carboxylic acid] | 1 µg/mL (≈ 1.87 µM) | 0.125 µg/mL (≈ 0.234 µM) | 1 µg/mL (≈ 1.87 µM) | 1 µg/mL (≈ 1.87 µM) |
| C[C@@H](NC(=O)c1cnccn1)[C@H]1C(=O)N2C(C(=O)O)=C(S[C@@H]3CN[C@H](C(=O)N(C)C)C3)[C@H](C)[C@H]12 [Example 303, (4R,5S,6R)-3-((3S,5S)-5-(dimethylcarbamoyl)pyrrolidin-3-ylthio)-4-methyl-7-oxo-6-((R) - 1-(pyrazine-2-carboxamido)ethyl) - 1-azabicyclo[3.2.0]hept-2-ene-2-carboxylic acid] | 2 µg/mL (≈ 4.09 µM) | 4 µg/mL (≈ 8.19 µM) | 64 µg/mL (≈ 131 µM) | > 128 µg/mL |
| C[C@@H](NC(=O)Cn1cnnn1)[C@H]1C(=O)N2C(C(=O)[O-])=C(SC3Cn4cnc[n+]4C3)[C@H](C)[C@H]12 (stereo partly drawn) [Example 306, (4R,5S,6R)-6-((R) - 1-(2-(1H-tetrazol-1-yl)acetamido)ethyl)-3-(6,7-dihydro-5H-pyrazolo[1,2-a][1,2,4]triazol-4-ium-6-ylthio)-4-methyl-7-oxo-1-azabicyclo[3.2.0]hept-2-ene-2-carboxylate] | 2 µg/mL (≈ 4.35 µM) | 0.25 µg/mL (≈ 0.544 µM) | 1 µg/mL (≈ 2.18 µM) | 4 µg/mL (≈ 8.71 µM) |
| CNCc1cn(CC(=O)N[C@H](C)[C@H]2C(=O)N3C(C(=O)O)=C(S[C@@H]4CN[C@H](C(=O)N(C)C)C4)[C@H](C)[C@H]23)nn1 [Example 309, (4R,5S,6R)-3-((3S,5S)-5-(dimethylcarbamoyl)pyrrolidin-3-ylthio)-4-methyl-6-((R) - 1-(2-(4-((methylamino)methyl)-1H-1,2,3-triazol-1-yl)acetamido)ethyl)-7-oxo-1-azabicyclo[3.2.0]hept-2-ene-2-carboxylic acid] | 16 µg/mL (≈ 29.9 µM) | 1 µg/mL (≈ 1.87 µM) | 4 µg/mL (≈ 7.48 µM) | 32 µg/mL (≈ 59.9 µM) |
| CNCC(=O)N[C@H](C)[C@H]1C(=O)N2C(C(=O)O)=C(S[C@@H]3CN[C@H](C(=O)N4CC[C@H](n5ncnn5)C4)C3)[C@H](C)[C@H]12 [Example 310, (4R,5S,6R)-3-((3S,5S)-5-((S)-3-(2H-tetrazol-2-yl)pyrrolidine-1-carbonyl)pyrrolidin-3-ylthio)-4-methyl-6-((R) - 1-(2-(methylamino)acetamido)ethyl)-7-oxo-1-azabicyclo[3.2.0]hept-2-ene-2-carboxylic acid] | 32 µg/mL (≈ 58.4 µM) | 1 µg/mL (≈ 1.83 µM) | 4 µg/mL (≈ 7.3 µM) | 64 µg/mL (≈ 117 µM) |

Further compounds by falling MIC [1], results first:

| MIC [1] | MIC [2] | MIC [3] | MIC [4] | SMILES |
| --- | --- | --- | --- | --- |
| 32 µg/mL (≈ 61.6 µM) | 8 µg/mL (≈ 15.4 µM) | 32 µg/mL (≈ 61.6 µM) | > 128 µg/mL | C[C@@H](NC(=O)[C@@H](N)Cn1cccn1)[C@H]1C(=O)N2C(C(=O)O)=C(S[C@@H]3CN[C@H](C(=O)N(C)C)C3)[C@H](C)[C@H]12 [Example 311, (4R,5S,6R)-6-((R) - 1-((S)-2-amino-3-(1H-pyrazol-1-yl)propanamido)ethyl)-3-((3S,5S)-5-(dimethylcarbamoyl)pyrrolidin-3-ylthio)-4-methyl-7-oxo-1-azabicyclo[3.2.0]hept-2-ene-2-carboxylic acid] |
| 16 µg/mL (≈ 29.9 µM) | 2 µg/mL (≈ 3.73 µM) | 16 µg/mL (≈ 29.9 µM) | 64 µg/mL (≈ 119 µM) | CNCc1nnc(CC(=O)N[C@H](C)[C@H]2C(=O)N3C(C(=O)O)=C(S[C@@H]4CN[C@H](C(=O)N(C)C)C4)[C@H](C)[C@H]23)o1 [Example 295] |
| 16 µg/mL (≈ 31.3 µM) | 1 µg/mL (≈ 1.96 µM) | 2 µg/mL (≈ 3.92 µM) | 4 µg/mL (≈ 7.83 µM) | CNCC(=O)N[C@H](C)[C@H]1C(=O)N2C(C(=O)O)=C(S[C@@H]3CN[C@H](C(=O)N4C[C@@H](N)[C@H](O)C4)C3)[C@H](C)[C@H]12 [Example 297] |
| 16 µg/mL (≈ 31.5 µM) | 4 µg/mL (≈ 7.86 µM) | 8 µg/mL (≈ 15.7 µM) | 16 µg/mL (≈ 31.5 µM) | C[C@@H](NC(=O)CC(N)=O)[C@H]1C(=O)N2C(C(=O)O)=C(S[C@@H]3CN[C@H](C(=O)N4CC[C@@H](N)C4)C3)[C@H](C)[C@H]12 [Example 299, (4R,5S,6R)-6-((R) - 1-(3-amino-3-oxopropanamido)ethyl)-3-((3S,5S)-5-((R)-3-aminopyrrolidine-1-carbonyl)pyrrolidin-3-ylthio)-4-methyl-7-oxo-1-azabicyclo[3.2.0]hept-2-ene-2-carboxylic acid] |
| 16 µg/mL (≈ 32.5 µM) | 1 µg/mL (≈ 2.03 µM) | 4 µg/mL (≈ 8.14 µM) | 128 µg/mL (≈ 260 µM) | C[C@@H](NC(=O)Cn1cncn1)[C@H]1C(=O)N2C(C(=O)O)=C(S[C@@H]3CN[C@H](C(=O)N(C)C)C3)[C@H](C)[C@H]12 [Example 300, (4R,5S,6R)-6-((R) - 1-(2-(1H-1,2,4-triazol-1-yl)acetamido)ethyl)-3-((3S,5S)-5-(dimethylcarbamoyl)pyrrolidin-3-ylthio)-4-methyl-7-oxo-1-azabicyclo[3.2.0]hept-2-ene-2-carboxylic acid] |
| 16 µg/mL (≈ 31.6 µM) | 4 µg/mL (≈ 7.9 µM) | 64 µg/mL (≈ 126 µM) | > 128 µg/mL | C[C@@H](NC(=O)Cc1nnn(C)n1)[C@H]1C(=O)N2C(C(=O)O)=C(S[C@@H]3CN[C@H](C(=O)N(C)C)C3)[C@H](C)[C@H]12 [Example 301, (4R,5S,6R)-3-((3S,5S)-5-(dimethylcarbamoyl)pyrrolidin-3-ylthio)-4-methyl-6-((R) - 1-(2-(2-methyl-2H-tetrazol-5-yl)acetamido)ethyl)-7-oxo-1-azabicyclo[3.2.0]hept-2-ene-2-carboxylic acid] |
| 8 µg/mL (≈ 15.8 µM) | 1 µg/mL (≈ 1.97 µM) | 4 µg/mL (≈ 7.9 µM) | > 128 µg/mL | C[C@@H](NC(=O)Cc1nnnn1C)[C@H]1C(=O)N2C(C(=O)O)=C(S[C@@H]3CN[C@H](C(=O)N(C)C)C3)[C@H](C)[C@H]12 [Example 304, (4R,5S,6R)-3-((3S,5S)-5-(dimethylcarbamoyl)pyrrolidin-3-ylthio)-4-methyl-6-((R) - 1-(2-(1-methyl-1H-tetrazol-5-yl)acetamido)ethyl)-7-oxo-1-azabicyclo[3.2.0]hept-2-ene-2-carboxylic acid] |
| 2 µg/mL (≈ 3.65 µM) | 1 µg/mL (≈ 1.83 µM) | 16 µg/mL (≈ 29.2 µM) | 128 µg/mL (≈ 234 µM) | C[C@@H](NC(=O)Cc1nnn(C)n1)[C@H]1C(=O)N2C(C(=O)O)=C(S[C@@H]3CN[C@H](C(=O)N4CC[C@@H](N)C4)C3)[C@H](C)[C@H]12 [Example 302] |
| 2 µg/mL (≈ 3.78 µM) | 0.25 µg/mL (≈ 0.472 µM) | 1 µg/mL (≈ 1.89 µM) | 8 µg/mL (≈ 15.1 µM) | C[C@@H](NC(=O)Cn1cnnn1)[C@H]1C(=O)N2C(C(=O)O)=C(S[C@@H]3CN[C@H](CNS(N)(=O)=O)C3)[C@H](C)[C@H]12 [Example 305, (4R,5S,6R)-6-((R) - 1-(2-(1H-tetrazol-1-yl)acetamido)ethyl)-4-methyl-7-oxo-3-((3S,5S)-5-((sulfamoylamino)methyl)pyrrolidin-3-ylthio)-1-azabicyclo[3.2.0]hept-2-ene-2-carboxylic acid] |
